The record followed here is patent US10980776B2, “Synergistic pharmaceutical combination for the treatment of squamous cell carcinoma of head and neck” (Piramal Enterprises Limited, priority 2011, dated 2021).

Read-outs that look alike come from different tables or passages of the source.

For series [1], the system named is FADU cells. The settings on record: for % Cytotoxicity: FADU.
Series [2] has as its system Detroit-562 cells. As to the kind of experiment: Combination studies (single and sequential combination dosing), % cytotoxicity in Detroit-562 cells. The settings on record: Detroit-562. The protocol: (§1) Logarithmically growing cells were plated at a density of 3×10^3 cells/well and allowed to recover overnight. […] After 72 hours, cell toxicity was determined by CCK-8 (Cell Counting Kit-8) reagent (Dojindo Molecular Technologies, Japan); WST-8 (2-(2-methoxy-4-nitrophenyl)-3-(4-nitrophenyl)-5-(2, 4-disulfophenyl)]-2H-tetrazolium, monosodium salt) assay. In accordance with the manufacturer's instructions, 5 μl/well CCK-8 reagent was added and plates were incubated for 2 hours. The toxicity was determined by measuring the absorbance on Tecan Sapphire multi-fluorescence micro-plate reader (Tecan, Germany, GmbH) at a wavelength of 450 nm corrected to 650 nm and normalized to controls.
(§2) CCK-8 allows convenient assays using Dojindo's tetrazolium salt, WST [8[(2-(2-methoxy-4-nitrophenyl)-3-(4-nitrophenyl)-5-(2,4-disulfophenyl)-2H-tetrazolium, monosodium salt], which produces a water-soluble formazan dye upon bioreduction in the presence of an electron carrier, 1-Methoxy PMS. CCK-8 solution is added directly to the cells; no pre-mixing of components is required. CCK-8 is a sensitive nonradioactive colorimetric assay for determining the number of viable cells in cell proliferation and cytotoxicity assays. WST-8 is bio-reduced by cellular dehydrogenases to an orange formazan product that is soluble in tissue culture medium. The amount of formazan produced is directly proportional to the number of living cells. The detection sensitivity of cell proliferation assays using WST-8 is higher than assays using the other tetrazolium salts such as MIT, XTT, MTS or WST-1. Optical Density was determined at measurement wavelength of 450 nm and reference wave length of 630 nm.
Sorafenib in the following dose of final concentration 1.8 μM and compound A in the following doses of final concentration 0.5 μM, 1.3 μM and 12.1 μM were analyzed in single dose and in all possible combinations of the dose range for the two anticancer agents mentioned above. The sequence of treatment is as follows; Detroit-562 cells were treated with sorafenib for 0 to 24 hrs. At the end of 24 hrs the cells were washed two times with plain MEM medium. Fresh MEM with 10% serum (200 μL/well) was added, followed by treatment with compound A from 24 hrs to 96 hrs.
Sorafenib in the following dose of final concentration 1.8 μM and compound B in the following doses of final concentration 2.7 μM, 14.1 μM and 25.2 μM were analyzed in single dose and in all possible combinations of the dose range for the two anticancer agents mentioned above. The sequence of treatment is as follows; the Detroit-562 cells were treated with sorafenib for 0 to 24 hrs. At the end of 24 hrs the cells were washed two times with plain MEM medium. Fresh MEM with 10% serum (200 μL/well) was added, followed by treatment with compound B from 24 hrs to 96 hrs.
Lapatinib in the following dose of final concentration 1 μM and compound A in the following doses of final concentration 0.5 μM, 1.3 μM and 12.1 μM were analyzed in single dose and in all possible combinations of the dose range for the two anticancer agents mentioned above. The sequence of treatment is as follows; the Detroit-562 cells were treated with lapatinib for 0 to 24 hrs. At the end of 24 hrs the cells were washed two times with plain MEM medium. Fresh MEM with 10% serum (200 μL/well) was added, followed by treatment with compound A from 24 hrs to 96 hrs.
Lapatinib in the following dose of final concentration 1.0 μM and compound B in the following doses of final concentration 2.7 μM, 14.1 μM and 25.2 μM were analyzed in single dose and in all possible combinations of the dose range for the two drugs mentioned above. The sequence of treatment is as follows; the Detroit-562 cells were treated with lapatinib for 0 to 24 hrs. At the end of 24 hrs the cells were washed two times with plain MEM medium. Fresh MEM with 10% serum (200 μL/well) was added, followed by treatment with compound A from 24 hrs to 96 hrs.

Series [3] has as its system SCC-25 cells. As to the kind of experiment: CCK-8 cytotoxicity assay, determination of inhibitory concentrations in SCC-25 cells. It counts as cell-based. The settings on record: SCC-25 cells, 72 hr. The protocol:
as §1, §2
(§3) The cells were seeded at a density of 3000 cells/well, in a 200 μL in tissue culture grade 96 well plate and were allowed to recover for 24 hrs in a humidified 5%±0.2 CO2 incubator at 37° C.±0.5° C. […] The final DMSO concentration was 0.5% in wells. Plates were incubated for 48 hrs in humidified 5%±0.2 CO2 incubator at 37±0.5° C. After 48 hrs the plates were removed from CO2 incubator and 5 μL of Cell counting Kit (CCK-8) per well was added. The same plate was kept at 37° C. for 3 hrs, and allowed to come to room temperature. The absorbance at a wavelength of 450 nm was read on Tecan safire reader. The percent cytotoxicity was calculated using the following formula.

In series [4] the test system is SCC-25 cells. The experiment in a line: Combination studies (single and sequential combination dosing), % cytotoxicity in SCC-25 cells. As to conditions: SCC-25; single agent at IC70 (compound A 4.1 μM). The protocol:
as §1, §2
Sorafenib in the following dose of final concentration 0.18 μM and compound A in the following doses of final concentration 0.1 μM, 0.4 μM and 4.1 μM were analyzed in single dose and in all possible combinations of the dose range for the two anticancer agents mentioned above. The sequence of treatment is as follows; the SCC-25 cells were treated with sorafenib for 0 to 24 hrs. At the end of 24 hrs the cells were washed two times with plain MEM (minimum essential media) medium. Fresh MEM with 10% serum (200 μL/well) was added, followed by treatment with compound A from 24 hrs to 96 hrs.
Sorafenib in the following dose of final concentration 0.18 μM and compound B in the following doses of final concentration 0.2 μM, 1.1 μM and 4.8 μM were analyzed in single dose and in all possible combinations of the dose range for the two anticancer agents mentioned above. The sequence of treatment is as follows; the SCC-25 cells were treated with sorafenib for 0 to 24 hrs. At the end of 24 hrs the cells were washed two times with plain MEM medium. Fresh MEM with 10% serum (200 μL/well) was added, followed by treatment with compound B from 24 hrs to 96 hrs.
Lapatinib in the following dose of final concentration 0.2 μM and compound A in the following doses of final concentration 0.2 μM, 0.5 μM and 3.3 μM were analyzed in single dose and in all possible combinations of the dose range for the two drugs mentioned above. The sequence of treatment is as follows; the SCC-25 cells were treated with lapatinib for 0 to 24 hrs. At the end of 24 hrs the cells were washed two times with plain MEM medium. Fresh MEM with 10% serum (200 μL/well) was added, followed by treatment with compound A from 24 hrs to 96 hrs.
Lapatinib in the following dose of final concentration 0.2 μM and compound B in the following doses of final concentration 0.2 μM, 1.1 μM and 4.8 μM were analyzed in single dose and in all possible combinations of the dose range for the two drugs mentioned above. The sequence of treatment is as follows; the SCC-25 cells were treated with lapatinib for 0 to 24 hrs. At the end of 24 hrs the cells were washed two times with plain MEM medium. Fresh MEM with 10% serum (200 μL/well) was added, followed by treatment with compound A from 24 hrs to 96 hrs.

Series [5] deals with Detroit-562 cells. As to the kind of experiment: CCK-8 cytotoxicity assay, determination of inhibitory concentrations in Detroit-562 cells. It counts as cell-based. As to conditions: 72 hr. The protocol: as §1, §2, §3
Series [6] deals with FaDu (hypopharyngeal squamous cell carcinoma) xenografts. The experiment in a line: In vivo efficacy in human head and neck cancer FaDu xenografts. As to conditions: FaDu xenografts in SCID mice; end of treatment, after 18 days; Compound A 35 mpk i.p. once daily 5 days a week; cisplatin 1 mpk i.p. once a week; cetuximab 2.5 mpk twice a week; 3 weeks.
Protocol: In-vivo studies were carried out according to the method described in Clinical cancer search, 2003, 9, 6052-6061; the disclosure of which is incorporated herein by reference for the teaching of the assay.
The in-vivo studies were carried out using Xenograft models in Severe combined immune deficiency (SCID) mice strain—CbySmn.CB17-Prkdcscid/J, by the method described below. The statistically significant number of mice per group (n=6) was chosen in order to be able to statistically evaluate the study data.
FaDu cells were grown in MEM (minimum essential media) medium containing non-essential amino acids and 10% fetal calf serum in 5% CO2 incubator at 37° C. Cells were pelleted by centrifugation at 1000 rpm for 10 minutes. Cells were resuspended in pre-chilled mixture of saline to get a count of 6×10^6 cells per mL; 0.2 ml of this cell suspension was kept on ice and injected by subcutaneous (s.c.) route in SCID mice. Mice were observed every alternate day for palpable tumor mass. Once the tumor size reached a size of 3-5 mm in diameter, animals were randomized into respective groups of treatment and untreated controls. The treatment groups comprised of 5 groups viz. […] The control group received no treatment.
Measurement of tumor was done every 2-3 days apart. Growth inhibition percentage (GI %) was calculated at the end of experiment.
Series [7] has as its system FADU cells. The experiment in a line: CCK-8 cytotoxicity assay, determination of inhibitory concentrations in FADU cells. The series is classed as cell-based, human. As to conditions: 72 hr. The protocol: as §1, §2, §3
The mark [8] stands for this setting: single agent at IC70, cisplatin/5-FU/compound A study.
Setting [9] is: single agent at IC10, docetaxel study.
[10] abbreviates: single agent at IC30, docetaxel study.
Setting [11] is: single agent at IC50, cisplatin/5-FU/compound A study.

As for `CN1CC[C@@H](c2c(O)cc(O)c3c(=O)cc(-c4ccccc4Cl)oc23)[C@@H]1CO.Cl` (relative stereo) [Compound A, (+)-trans-2-(2-Chloro-phenyl)-5,7-dihydroxy-8-(2-hydroxy-methyl-1-methyl-pyrrolidin-3-yl)-chromen-4-one hydrochloride], the cytotoxicity in series [1] was determined as 18%. For the same molecule, the “% Cytotoxicity” value in series [2] (single agent at IC50 (compound A 1.3 μM), lapatinib study) was determined as 22%; in series [2] (setting [8]), 18.02%; in series [2] (single agent at IC70, erlotinib study), 34.32%; in series [4], 29%. Further, the IC30 amounted to 0.1 µM in series [3], 0.5 µM in series [5] and 0.2 µM in series [7]. In addition, the values for the IC70 in series [3], in series [5] and in series [7] were 4.1 µM, 12.1 µM and 8.3 µM, respectively. In addition, the IC90 came to 33.3 µM in series [3], 26.3 µM in series [5] and 28.3 µM in series [7]. Further, the figures for the IC50 in series [3] (read-out: IC50), in series [5] and in series [7] were 0.4 µM, 1.3 µM and 1.3 µM, respectively. Besides, the values for the concentration for an effect of 10% (IC10) in series [5] and in series [7] were 0.1 µM and 0.08 µM, respectively. Moreover, the “Tumor Growth inhibition (%)” value in series [6] came out at 11%.

In series [5], `N.N.[Cl][Pt][Cl]` [Cisplatin] registered an IC10 of 0.3 µM, an IC30 of 3 µM, an IC50 of 14.6 µM and an IC70 of 43.2 µM. In series [5], this molecule yielded an IC90 of 74.5 µM. The “Tumor Growth inhibition (%)” value in series [6] is given as 4%. Further, in series [7], the IC10 worked out at 0.25 µM, the IC30 amounted to 3 µM, the IC50 was determined as 8.3 µM and the IC70 was 30 µM. For the same molecule, the IC90 in series [7] was 74 µM.

Turning to `O=c1[nH]cc(F)c(=O)[nH]1` [Compound 5-FU], the “% Cytotoxicity” value in series [1] (setting [9]) worked out at 6.81%; in series [1] (single agent at IC30, cisplatin/5-FU/compound A study) it was 17.81%; in series [1] (setting [10]) it was 19.29%; in series [1] (setting [11]) it was 21.1%; in series [1] (setting [8]), 28.6%; in series [2] (setting [9]), 9.49%. Also, the “% Cytotoxicity” value was 15.39% in series [2] (setting [10]); 16.21% in series [2] (setting [11]); 19.54% in series [2] (setting [8]); 12.59% in series [2] (single agent at IC90, cisplatin/5-FU/compound A study). Further, the IC10 in series [5] and in series [7] was 0.31 µM in each case. Also, the IC30 in series [5] was found to be 1.1 µM; in series [7] it was 2.3 µM. Besides, the IC70 stood at 17.6 µM in series [5] and 22.4 µM in series [7]. Further, the IC50 was 6.3 µM in series [5] (Homo sapiens) and 11.6 µM in series [7] (Homo sapiens). Moreover, the IC90 was 33.4 µM in series [5] (Homo sapiens) and 38.3 µM in series [7] (Homo sapiens).
